Measured values published in US20090045056A1, “Stable three enzyme creatinine biosensor” (priority 2004, published 2009).

Key:
[1] = molecular target: T1, sarcosine oxidase (Bacillus sp., UniProt P40859); details: cited from earlier work; for Ki: inhibitor of sarcosine oxidase
T1 sequence (P40859 1-390): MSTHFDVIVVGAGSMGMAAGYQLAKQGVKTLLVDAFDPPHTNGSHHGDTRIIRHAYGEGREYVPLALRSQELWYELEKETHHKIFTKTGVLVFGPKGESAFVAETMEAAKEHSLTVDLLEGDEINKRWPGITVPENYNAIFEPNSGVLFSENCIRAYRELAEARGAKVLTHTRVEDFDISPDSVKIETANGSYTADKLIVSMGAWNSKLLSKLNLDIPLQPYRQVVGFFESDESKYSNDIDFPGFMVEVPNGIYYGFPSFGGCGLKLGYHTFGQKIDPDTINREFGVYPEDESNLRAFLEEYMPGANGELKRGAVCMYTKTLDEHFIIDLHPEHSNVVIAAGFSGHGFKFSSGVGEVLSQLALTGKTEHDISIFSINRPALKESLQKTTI

[2] = system: creatine amidinohydrolase; experiment: Additives to prevent silver inhibition of creatine amidinohydrolase; assay type: biochemical, Actinobacilus sp.; details: 50 mM additive, pre-incubation
Method: Creatine amidinohydrolase (1.0 mg/ml) was prepared in solution with either 50 mM EDT A, 50 mM EGT A, 50 mM mercaptoethanol, 50 mM DTT or 50 mM cysteine with 20 mM Tris, pH 7.5.

[3] = molecular target: sarcosine oxidase (Arthrobacter sp., UniProt P40873); details: 1 nM to 1 mM silver nitrate, various incubation times, residual activity assayed in absence of silver
Sequence of sarcosine oxidase (Arthrobacter sp., UniProt P40873) (P40873 whole entry): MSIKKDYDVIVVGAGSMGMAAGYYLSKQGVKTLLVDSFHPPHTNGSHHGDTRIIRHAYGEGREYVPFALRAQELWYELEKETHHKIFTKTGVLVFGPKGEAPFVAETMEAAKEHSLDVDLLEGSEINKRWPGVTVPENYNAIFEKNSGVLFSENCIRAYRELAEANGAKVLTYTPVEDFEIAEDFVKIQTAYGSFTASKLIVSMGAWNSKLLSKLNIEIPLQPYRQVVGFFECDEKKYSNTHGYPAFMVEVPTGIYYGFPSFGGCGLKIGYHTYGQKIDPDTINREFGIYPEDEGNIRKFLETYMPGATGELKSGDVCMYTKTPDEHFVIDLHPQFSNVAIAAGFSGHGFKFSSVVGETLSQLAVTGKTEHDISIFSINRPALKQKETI
Method: Typically, an enzyme solution (0.05 mL) was incubated with a mixture (1.0 mL total) of 95 mM sarcosine, 0.47 mM 4-aminoantipyrene, 2 mM phenol, 0.045% Triton X-100, 50 mM sodium phosphate (pH 8.0) and 5 units/mL of horseradish peroxidase at 37° C. for 10 minutes. The reaction was terminated by addition of 2.0 mL of 0.25% SDS solution and the absorbance at 500 nm was measured. One unit was defined as the amount of enzyme that catalyzed the oxidation of 1). mol of substrate per minute.
Samples were removed periodically and assayed using the end point assay for sarcosine oxidase activity.

[4] = system: creatine amidinohydrolase; details: 5-100 μM silver nitrate
Method: Creatine amidinohydrolase activity was monitored using a colorimetric assay that measures urea formation from the hydrolysis of creatine (Tsuchida and Yoda, Clin. Chem. 29:51-55 (1983)). An enzyme solution (0.1 mL) was incubated with a mixture (0.90 mL) of 100 mM creatine in sodium phosphate buffer (50 mM, pH 7.5) at 37° C. for 10 minutes. The reaction was stopped by adding 2.0 mL of a solution containing Ehrlich's reagent (2.0 g of p-dimethyl aminobenzaldehyde in 100 mL of dimethyl sulfoxide plus 15 mL of concentrated HCl). The solution was incubated for 20 minutes at room temperature and the absorbance at 435 nm was measured. One unit was defined as the amount of enzyme that catalyzes the hydrolysis of 1 μmol of substrate per minute.
Samples were removed periodically and assayed using the end point assay. […] After 10 minutes of incubation, the stop solution (p-dimethyl benzaldehyde solution) was added.

[5] = system: creatinine amidohydrolase; details: silver nitrate from 1 nM, 5 min to 1 hr incubation
Method: An enzyme solution (0.1 mL) was incubated with a mixture (0.90 mL) of 100 mM creatine in mM soditim phosphate (pH 7.5) at 37° C. for 10 minutes. After 10 minutes, the creatine/enzyme mixture (0.1 mL) was added to 0.5 M sodium hydroxide (1.9 mL) and 1% picric acid (1.0 mL). This solution was incubated for 20 minutes at room temperature and the absorbance at 520 nm was measured. One unit was defined as the amount of enzyme which catalyzed the formation of 1 μmol of creatinine per minute.
Samples were removed periodically and assayed using the end point assay.

In the case of `CNCC(=O)O` [sarcosine], the Km ([1]; native substrate of sarcosine oxidase) is listed as 600 µM.
In the case of `O=C(O)c1ccc[nH]1` [Pyrrole-2-carboxylic acid], the Ki [1] is listed as 1370 µM.
In the case of `OCCS` [mercaptoethanol], the “prevention of silver inhibition of creatine amidinohydrolase” value [2] is reported as “effectively prevented”.
With `N[C@@H](CS)C(=O)O` [cysteine] the “prevention of silver inhibition of creatine amidinohydrolase” value [2] was “effectively prevented”.
With `O=[N+]([O-])[O-].[Ag+]` [silver nitrate] the “inhibition of sarcosine oxidase by silver ions” value [3] was “effective irreversible inhibitor”, the “inhibition of creatine amidinohydrolase by silver ions” value [4] was “completely inhibiting enzyme activity” and the “inhibition of creatinine amidohydrolase by silver ions” value [5] was “effective inhibitor of creatinine amidinohydrolase at high concentrations”.
For `O[C@@H](CS)[C@@H](O)CS` [DTT], the “prevention of silver inhibition of creatine amidinohydrolase” value [2] was “effectively prevented”.
For `CSCC(=O)O` [(methylthio)acetic acid], the Ki [1] is given as 2600 µM.
